Results from US20240197869A1, “HYPERACTIVATORS OF MAMMALIAN DENDRITIC CELLS” (Corner Therapeutics, Inc., priority 2021, published 2024).

How the values were obtained:
[1] = test system: human monocyte-derived dendritic cells (moDCs); test: DAMP screen: viability of human moDCs (CellTiter-Glo)
Experimental: Danger-Associated Molecular Pattern (DAMP) Screen. After 6 days of differentiation into moDC, cells were collected and counted. Cells were plated at 100,000 cells/well in R10 media in 96-well flat bottom tissue culture-treated plates. LPS, serotype O55:B5 (Enzo Life Sciences) was added to a final concentration of 1 μg/mL in each well. […] Cells were incubated at 37° C., 5% CO2 for two days. Cell cultures were then used for endpoint analyses.
Endpoint Analyses. After culturing moDCs with PAMPs and DAMPs for two days, supernatant and cell samples were collected for analysis.
(§2) Quantification of Cell Viability. Cell viability was assessed by quantifying the presence of ATP as an indicator of metabolically active cells using the CellTiter-Glo Luminescent Cell Viability Assay (Promega). Metabolic activity was assessed following manufacturer's instructions. The CellTiter-Glo reagent was mixed with the cell pellets and remaining supernatant, and transferred to a white, opaque 96-well plate. Luminescence was measured on all wavelengths on a Spectramax iD3 plate reader (Molecular Devices) using an integration time of 500 ms. Percent viability was calculated relative to the control condition of moDCs treated with LPS.

[2] = test system: human monocyte-derived dendritic cells (moDCs); test: DAMP screen: IL-1β secretion by LPS-activated human moDCs (ELISA); assay type: cell-based
Experimental: Danger-Associated Molecular Pattern (DAMP) Screen.
(§1) Quantification of IL-1beta Secretion. IL-1beta secretion was assessed using the ELISA MAX Deluxe Set Human IL-1beta kit (Biolegend). ELISAs were performed according to manufacturer's instructions with the following modifications: i) total sample volume for incubation was reduced from […] the top standard was prepared at […], with two-fold dilutions to […]; and iii) sample incubation was completed overnight at 4 C on an orbital shaker. […] To determine IL-1beta concentration in supernatants, sample IL-1beta concentrations were interpolated using a standard curve via 4PL analysis on GraphPad Prism 9 (GraphPad Software). The interpolated results of samples were then adjusted for any dilutions made to the supernatant.

[3] = test system: human monocyte-derived dendritic cells (moDCs); test: Lipid titration: IL-1β secretion by LPS-activated human moDCs; assay type: cell-based; conditions: for Activity Units (AU) ± SD (lipid activity index): reciprocal of lowest concentration giving IL-1β two-fold over LPS x highest IL-1β signal
Experimental: as §1

[4] = test system: human monocyte-derived dendritic cells (moDCs); test: Lipid titration: viability of human moDCs (CellTiter-Glo); conditions: 10.3 μM lipid + LPS 1 μg/mL, 2 days; relative to LPS-treated moDCs; Table 1-5
Experimental: Lipid Titration. After 6 days of differentiation into moDC, cells were collected and counted. Cells were replated at 100,000 cells/well in R10 media in 96-well flat bottom tissue culture-treated plates. LPS, serotype 055:B5 (Enzo Life Sciences) was added to a final concentration of 1 μg/mL in each well. After the addition of LPS, lipids were prepared. […] After two days of culture, cell cultures were used for endpoint analyses.
Endpoint Analyses. After culturing moDCs with PAMPs and DAMPs for two days, supernatant and cell samples were collected for analysis. Cells in culture were pelleted by centrifugation at 400×g for 5 min.
as §2
Statistical Analyses. […] For each tested condition, cells from each donor were plated to be tested in triplicate.

[5] = 41.3 μM lipid + LPS 1 μg/mL, 2 days, relative to LPS-treated moDCs, Table 1-2
[6] = 82.5 μM lipid + LPS 1 μg/mL, 2 days, relative to LPS-treated moDCs, Table 1-1
[7] = 41.3 μM lipid + LPS 1 μg/mL, 2 days, Table 1-2
[8] = 10.3 μM lipid + LPS 1 μg/mL, 2 days, Table 1-5
[9] = 20.6 μM lipid + LPS, human moDCs, 4 donors, mean (SD in wrapped line below)
[10] = 82.5 μM lipid + LPS, selected lipids, Table 1-3 (repeats Table 1-1)

| Structure (SMILES) | Relative Viability (%) ± SD [1, 5] | Relative Viability (%) ± SD [1, 6] | IL-1β secretion [2, 7] | IL-1β secretion [3, 8] | IL-1β secretion [3, 9] | Relative Viability (%) ± SD [1, 10] | IL-1β secretion [2, 10] | Relative Viability (%) ± SD [4] | lipid activity index, ranking in words ([3]; lipid 1.3-82.5 μM + LPS) | Activity Units (AU) ± SD (lipid activity index) ([3]; lipid 1.3-82.5 μM + LPS) |
| --- | --- | --- | --- | --- | --- | --- | --- | --- | --- | --- |
| CCCCCCCCCCCCCCCC(=O)O[C@H](CO)COP(=O)([O-])OCC[N+](C)(C)C [2-16:0 LYSO PC, 1-hydroxy-2-palmitoyl-sn-glycero-3-phosphocholine] | 87.2% | 43.9% | 93.0 pg/mL | – | – | – | – | – | – | – |
| CCCCCCCCCCCCCCCCCC(=O)O[C@H](CO)COP(=O)([O-])OCC[N+](C)(C)C [2-18:0 LYSO PC, 2-stearoyl-sn-glycero-3-phosphocholine] | 65.3% | 11.5% | 225.0 pg/mL | – | – | – | – | – | – | – |
| CCCCCCCC/C=C\CCCCCCCC(=O)O[C@H](CO)COP(=O)([O-])OCC[N+](C)(C)C [2-18:1 Δ9 LYSO PC, 1-hydroxy-2-oleoyl-sn-glycero-3-phosphocholine] | 100.6% | 97.7% | 45.0 pg/mL | – | – | – | – | – | – | – |
| CCCCCC(=O)OC[C@@H](O)COP(=O)([O-])OCC[N+](C)(C)C [06:0 LYSO PC] | 96.1% | 92.8% | 48.2 pg/mL | – | – | – | – | – | – | – |
| CCCCCCC(=O)OC[C@@H](O)COP(=O)([O-])OCC[N+](C)(C)C [07:0 LYSO PC] | 97.9% | 93.9% | 36.0 pg/mL | – | – | – | – | – | – | – |
| CCCCCCCC(=O)OC[C@@H](O)COP(=O)([O-])OCC[N+](C)(C)C [08:0 LYSO PC] | 96.7% | 95.3% | 32.2 pg/mL | – | – | – | – | – | – | – |
| CCCCCCCCC(=O)OC[C@@H](O)COP(=O)([O-])OCC[N+](C)(C)C [09:0 LYSO PC] | 98.2% | 95.4% | 31.3 pg/mL | – | – | – | – | – | – | – |
| CCCCCCCCCCC(=O)OC[C@@H](O)COP(=O)([O-])OCC[N+](C)(C)C [11:0 LYSO PC] | 94.9% | 92.8% | 39.3 pg/mL | – | – | – | – | – | – | – |
| CCCCCCCCCCCC(=O)OC[C@@H](O)COP(=O)([O-])OCC[N+](C)(C)C [12:0 LYSO PC] | 96.6% | 91.1% | 54.5 pg/mL | 43.1 pg/mL | 44.2 pg/mL | 91.1% | 115.3 pg/mL | 97.3% | – | – |
| CCCCCCCCCCCCC(=O)OC[C@@H](O)COP(=O)([O-])OCC[N+](C)(C)C [13:0 LYSO PC, 1-tridecanoyl-2-hydroxy-sn-glycero-3-phosphocholine] | 93.9% | 93.2% | 80.7 pg/mL | – | – | – | – | – | – | – |
| CCCCCCCCCCCCCCCC(=O)O[C@H](COC(=O)CCCCCCCCCCCCC)COP(=O)([O-])OCC[N+](C)(C)C [14:0-16:0 PC] | 97.1% | 90.8% | 32.7 pg/mL | – | – | – | – | – | – | – |
| CCCCCCCCCCCCCCCCCC(=O)O[C@H](COC(=O)CCCCCCCCCCCCC)COP(=O)([O-])OCC[N+](C)(C)C [14:0-18:0 PC] | 100.0% | 90.5% | 24.0 pg/mL | – | – | – | – | – | – | – |
| CCCCCCCCCCCCCCC(=O)OC[C@@H](O)COP(=O)([O-])OCC[N+](C)(C)C [15:0 LYSO PC, 1-pentadecanoyl-2-hydroxy-sn-glycero-3-phosphocholine] | 90.8% | 65.4% | 150.3 pg/mL | – | – | – | – | – | – | – |
| CCCCCCCCCCCCCCCC(=O)OC[C@@H](O)COP(=O)([O-])OCC[N+](C)(C)C [16:0 LYSO PC, 1-palmitoyl-2-hydroxy-sn-glycero-3-phosphocholine] | 87.2% | 44.7% | 97.4 pg/mL | – | – | – | – | – | – | – |
| CCCCCCCCCCCCCCCC(=O)OC[C@H](COP(=O)([O-])OCC[N+](C)(C)C)OC(=O)CCCCCCCCCCCCC [16:0-14:0 PC] | 101.0% | 87.4% | 42.2 pg/mL | – | – | – | – | – | – | – |
| CCCCCCCCCCCCCCCCCC(=O)O[C@H](COC(=O)CCCCCCCCCCCCCCC)COP(=O)([O-])OCC[N+](C)(C)C [16:0-18:0 PC] | 97.7% | 88.8% | 26.3 pg/mL | – | – | – | – | – | – | – |
| CCCCCCCC/C=C\CCCCCCCC(=O)O[C@H](COC(=O)CCCCCCCCCCCCCCC)COP(=O)([O-])OCC[N+](C)(C)C [16:0-18:1 PC (POPC)] | 96.5% | 92.9% | 28.2 pg/mL | – | – | – | – | – | – | – |
| CCCCCCCCCCCCCCCC(=O)OC[C@H](COP(=O)([O-])OCC[N+](C)(C)C)OC(=O)CCCCCCCCCCC(CCCCCC)OC(=O)CCCCCCCCCCCCCCC (some centres unmarked) [16:0-(12-PAHSA) PC] | 98.3% | 96.9% | 37.0 pg/mL | – | – | – | – | – | – | – |
| CCCCCC/C=C\CCCCCCCCC(=O)OC[C@@H](O)COP(=O)([O-])OCC[N+](C)(C)C [17:1 Δ^10 LYSO PC, 1-(10Z-heptadecenoyl)-2-hydroxy-sn-glycero-3-phosphocholine] | 97.2% | 95.3% | 42.7 pg/mL | – | – | – | – | – | – | – |
| CCCCCCCCCCCCCCCCCC(=O)OC[C@H](COP(=O)([O-])OCC[N+](C)(C)C)OC(=O)CCCCCCCCCCCCC [18:0-14:0 PC] | 98.1% | 86.1% | 31.2 pg/mL | – | – | – | – | – | – | – |
| CCCCCCCCCCCCCCCCCC(=O)OC[C@H](COP(=O)([O-])OCC[N+](C)(C)C)OC(=O)CCCCCCCCCCCCCCC [18:0-16:0 PC] | 100.3% | 85.3% | 20.1 pg/mL | – | – | – | – | – | – | – |
| CCCCCCCC/C=C\CCCCCCCC(=O)OC[C@@H](O)COP(=O)([O-])OCC[N+](C)(C)C [18:1 Δ^9 LYSO PC] | 97.8% | 91.5% | 34.8 pg/mL | – | – | – | – | – | – | – |
| CCCCCCCCCCCCCCCCCCC(=O)OC[C@@H](O)COP(=O)([O-])OCC[N+](C)(C)C [19:0 LYSO PC, 1-nonadecanoyl-2-hydroxy-sn-glycero-3-phosphocholine] | 39.4% | 2.7% | 468.9 pg/mL | 43.0 pg/mL | 55.6 pg/mL | 2.7% | 209.3 pg/mL | 96.4% | followed by 19:0 Lyso PC | 6.34 ± 3.39 AU |
| CCCCCCCCCCCCCCCCCCCC(=O)OC[C@@H](O)COP(=O)([O-])OCC[N+](C)(C)C [20:0 LYSO PC, 1-arachidoyl-2-hydroxy-sn-glycero-3-phosphocholine] | 75.2% | 6.0% | 168.7 pg/mL | – | – | – | – | – | – | – |
| CCCCCCCCCCCCCCCCCCCCCCCC(=O)OC[C@@H](O)COP(=O)([O-])OCC[N+](C)(C)C [24:0 LYSO PC, 1-lignoceroyl-2-hydroxy-sn-glycero-3-phosphocholine] | 94.6% | 96.0% | 38.8 pg/mL | 36.5 pg/mL | 36.6 pg/mL | 96.0% | 39.7 pg/mL | 96.8% | – | – |
| CCCCCCCCCCCCCCCCCCCCCCCCCC(=O)OC[C@@H](O)COP(=O)([O-])OCC[N+](C)(C)C [26:0 LYSO PC] | 93.3% | 94.7% | 43.1 pg/mL | – | – | – | – | – | – | – |
| CCCCCCCCCCCCCCCC(=O)OC[C@H](COP(=O)([O-])OCC[N+](C)(C)C)OC(=O)CCCCCCCC(=O)O [PAzePC, 1-palmitoyl-2-azelaoyl-sn-glycero-3-phosphocholine, reference compound] | 95.6% | 78.8% | 191.7 pg/mL | 47.9 pg/mL | 59.0 pg/mL | 78.8% | 153.4 pg/mL | 98.0% | – | 1.81 ± 1.95 AU |
| CCCCCCCCCCCCCCCC(=O)OC[C@H](COP(=O)([O-])OCC[N+](C)(C)C)OC(=O)CCCC=O [POVPC, 1-palmitoyl-2-(5′-oxo-valeroyl)-sn-glycero-3-phosphocholine, reference compound] | 92.1% | 79.5% | 121.5 pg/mL | 49.1 pg/mL | 60.6 pg/mL | 79.5% | 168.5 pg/mL | 97.3% | – | 0.00 ± 0.00 AU |
